From US7186699B2, “Method for treating cancer by vector-mediated delivery of one or more anti-angiogenic or pro-apoptotic genes” (Cell Genesys, Inc., priority 2003, dated 2007)
Numbering of substitutions follows the chain as printed. Where a SMILES comes first, the peptide text is derived from it. The star is where a group is joined. Cbz = O=C(OCc1ccccc1)*; CH2F = FC*

How the values were obtained:
Caspase 3 = Caspase 3 protease activity in Colo-205 cell lysates (DEVD-pNA); assay type: cell-based, human
Description: (§1) In certain assays, cells are pre-treated with 20 uM of the pan-caspase inhibitor, ZVAD-fmk (RnD Systems), 1 hr prior to stimulation with TRAIL or control agents.

Colo-205 cells [1] = test: DNA fragmentation (apoptosis) ELISA in Colo-205 cells; assay type: cell-based, human
From the text: Apoptosis, e.g. […]
DNA fragmentation is quantitated by a photometric enzyme-immunoassay (Cell Death Detection ELISA Assay, Roche) for measuring cytoplasmic histone-associated nucleosomes according to the manufacturer's protocols. % Apoptosis is defined as relative increase in DNA fragmentation in treated vs. control cells calculated by [O.D. Treated−background]/[Maximal O.D.−Background].

human tumor cell lines = test: Sensitivity of tumor cell lines to TRAIL, WST-8 cytotoxicity assay; assay type: cell-based; conditions: human tumor cell lines from diverse tissues; 24 hr; FIG. 14
Description: Briefly, 1e4 tumor cells (ATCC), or normal primary cells (BioWhittaker), are seeded in one well of a 96-well titer plate and incubated overnight at 37° C. Cells are then treated with the test or control agents for 24, 48 or 72 hr. Following treatment, cell viability is evaluated using a tetrazolium-salt (WST-8) based proliferation assay (Cell Counting Kit-8, Dojindo Laboratories, Japan) according to the manufacturer's recommendations. % Cytotoxicity/Growth inhibition is defined as [1-(OD treated−background)/(OD untreated−background)×100].
(§2) The specificity of TRAIL-induced cell death was tested in a variety of tumor and normal cells. […] The combinatorial cytotoxic effects of TRAIL and chemotherapy were tested in a panel of tumor cells.

Colo-205 cells [2] = test: Colo-205 growth inhibition/viability, WST-8 tetrazolium assay; assay type: cell-based, human; conditions: 24, 48 and 72 hr treatment, FIG. 10B/10C
Description: Cell proliferation was evaluated using a WST-8-based tetrazolium salt viability assay using the formulas: % Viability=[OD (sTRAIL) treated−background]/[OD (GFP) untreated−background]×100 and % Growth Inhibition=[1-(OD treated−background)/OD untreated−background)]×100.

Caspase 8 = Caspase 8 protease activity in Colo-205 cell lysates (IETD-pNA); assay type: cell-based, human
Description: as §1

[3] = system: A549 lung carcinoma, U87MG glioma, MCF7 breast carcinoma, PC-3 prostate carcinoma; test: Chemosensitization of tumor cells to TRAIL; assay type: cell-based, human; conditions: A549+cisplatin, U87MG+etoposide, MCF-7+doxorubicin, PC-3+doxorubicin; 24 hr pre-treatment with sub-toxic doses, then 24 hr TRAIL
Description: FIGS. 16A–D show augmentation of sTRAIL-induced tumor cell cytotoxicity by chemotherapy sensitization 1 e4 tumor cells were pretreated with genotoxic agents for 24 hr to sensitize, then subsequently treated with sTRAIL for 24 hr. Viability was measured by WST-8 tetrazolium salt assay after 24 hr sTRAIL treatment and % Growth inhibition=[1-(OD treated−background)/(OD untreated−background)×100].
(§3) Tumor cells are plated at 1e4 cells per well in 96-well plates and incubated overnight at 37 C after which time the cells are left untreated or treated with the indicated sub-toxic doses of chemotherapeutic agents. After 24 hr, the cells are left untreated, or treated with sub-toxic doses of recombinant human TRAIL or AAV-produced TRAIL for an additional 24, 48 or 72 hr. Cell viability is evaluated using a tetrazolium-salt (WST-8) based proliferation assay (Cell Counting Kit-8, Dojindo Laboratories, Japan) according to the manufacturer's recommendations. % Cytotoxicity/Growth Inhibition was defined as [1-(OD treated−background)/(OD untreated−background)×100].
as §2

[4] = system: HT29 colorectal tumor cells; test: Chemosensitization of HT29 colon cancer cells to TRAIL; assay type: cell-based, human
Description: FIGS. 17A–C show augmentation of sTRAIL-induced HT29 colon cancer cytotoxicity by chemotherapy sensitization.
as §3, §2

[5] = system: colorectal tumor cell lines (HT29, HCT-116, Colo-205); test: Combination of sTRAIL and COX inhibitors in colorectal tumor cell lines; assay type: cell-based, human; conditions: combined with high doses of SC-560 and Celebrex
Description: as §2

[6] = system: VEGF induced vessel sprouting; test: Chick chorioallantoic membrane (CAM) assay; assay type: in vivo; conditions: 25 ng VEGF with 0.1, 1 and 10 ng protein from conditioned media; 72 hr
Description: FIG. 4 illustrates the results of experiments that show PF4 and PF4(DLR) reduce VEGF stimulated angiogenesis in the chick chorioallantoic membrane (CAM) assay. Hyrdocortisone-containing filter disks were soaked with 25 ng of VEGF together with 0.1 ng, 1 ng and 10 ng of PF-4 or PF-4(DLR) derived from conditioned media. AAV-null, 293 cell supernatant and an internal PF-4 protein standard, PF4-Blast, were included in the assay as separate controls. Filter disks were aseptically placed on top of the chorioallantoic membranes of 11 day chick embryos. 72 hours after incubation the CAMs were surgically removed, fixed and the number of vessel sprouts determined by stereomicroscopy.
Hydrocortisone-containing filter discs are soaked with 25 ng Vascular Endothelium Growth Factor (VEGF) (R&D Systems, Minneapolis, Minn.) together with the indicated doses of conditioned media from control or vector transduced cells, and aseptically placed on top of the chorioallantoic membranes of 11 day old chick embryos. After 72 hr incubation, the CAMs are surgically removed, fixed and the discs are analyzed for VEGF-induced angiogenesis by stereomicroscopy. The mean number (+/−SEM) of branch points occurring in the new blood vessel sprouts beneath the applied filter disc from the treated CAMs is enumerated from multiple (n=8–10) samples. […]

[7] = Colo-205 cells, 4 hr incubation
[8] = Colo-205 cells pre-incubated with 20 uM inhibitor

Molecule: recombinant human TRAIL: recombinant human TRAIL purchased from a commercial vendor (RnD Systems)
- Induction of caspase 3 protease activity (Caspase 3; [7]): Dose-dependent induction
- 50% effective dose (ED50) for induction of apoptosis (DNA fragmentation) (Colo-205 cells [1]; Colo-205 cells, 6 hr incubation (sTRAIL 6, 16 and 24 hr), FIG. 11): approximately 1 ng/ml
- Cytotoxicity in tumor cell lines (human tumor cell lines): cytotoxicity was observed in a wide spectrum of human tumor cell lines
- 50% effective dose of Colo-205 growth inhibition (Colo-205 cells [2]): approximately 0.5 ng/ml
- Induction of caspase 8 protease activity (Caspase 8; [7]): Dose-dependent induction
- Cytotoxic effect combined with chemotherapy [3]: augmented cytotoxic effect

Molecule: TRAIL
- Cytotoxic effect combined with chemotherapy ([4]; combined with sub-toxic doses of doxorubicin, cisplatin, or camptothecin): synergistic cytotoxic effect
- Cell death with TRAIL alone ([4]; sub-optimal doses of TRAIL): refractory to cell death
- Cytotoxic activity combined with cyclo-oxygenase-2 inhibitors [5]: synergistic cytotoxic activity

Molecule: COC(=O)C[C@H](NC(=O)[C@H](C)NC(=O)[C@@H](NC(=O)OCc1ccccc1)C(C)C)C(=O)CF [ZVAD-fmk] (Cbz-Val-Ala-Asp(OMe)-CH2F)
- Effect on TRAIL-induced caspase 3 protease activity (Caspase 3; [8]): blocking of TRAIL-induced caspase protease activity
- Effect on sTRAIL induced DNA fragmentation (Colo-205 cells [1]; Colo-205 cells pre-incubated with increasing amounts of inhibitor, 6 hr after sTRAIL treatment): prevents sTRAIL induced DNA fragmentation in a dose-dependent manner
- Effect on TRAIL-induced caspase 8 protease activity (Caspase 8; [8]): blocking of TRAIL-induced caspase protease activity

B1: PF-4: platelet factor-4 from conditioned media of transfected 293 cells (SEQ ID NO:7) (protein)
chain: MSSAAGFCASRPGLLFLGLLLLPLVVAFASAEAEEDGDLQCLCVKTTSQVRPRHITSLEVIKAGPHCPTAQLIATLKNGRKICLDLQAPLYKKIIKKLLES
modifications: platelet factor-4
- VEGF induced vessel sprouting [6]: blockage of VEGF induced vessel sprouting

B2: PF-4(DLR): platelet factor-4 with the DLR mutation (SEQ ID NO:9) from conditioned media (protein)
chain: B1 chain with Q87R
modifications: platelet factor-4 with DLR mutation
- VEGF induced vessel sprouting [6]: blockage of VEGF induced vessel sprouting
